Patent US11291726B2 (KOREA INSTITUTE OF SCIENCE AND TECHNOLOGY, priority 2018, dated 2022)

Columns and labels:
[1] = Photothermal efficiency (solution temperature under laser irradiation); format: physicochemical; settings: laser 808 nm, 1 W; followed by temperature decrease due to photodegradation
From the text: Such an increase of photothermal efficiency of the ICG-Fe NPs is thought to be due to fluorescence of ICG, which competitively acts on the photothermal reaction and is present within the nanoparticles in a fluorescence-quenched state.

nude mice = experiment: Toxicity in animal models (blood liver levels, liver/kidney tissue staining); format: in vivo; settings: 200 μL intravenously, male nude mice, two days later
From the text: Two days later, blood and liver/kidney tissues were collected and evaluated for toxicity.

[2] = tested on: HT-29 cells (human colon cancer) solid tumors; experiment: Cancer cell accumulation in cancer disease model via fluorescence imaging; format: in vivo; settings: HT-29 tumor on left thigh of nude mice, 200 μL intravenously
Procedure: The model with a cancer disease was prepared by subcutaneous injection of 1×10^7 HT-29 cells (human colon cancer, Korean Cell Line Bank) on the left thigh of 5-week-old male nude mice (Orientbio Inc., Korea). After 2 weeks of cancer cell transplantation, solid tumors were confirmed to be formed, and then subsequent experiments were performed.

CC1(C)C(/C=C/C=C/C=C/C=C2\N(CCCCS(=O)(=O)O)c3ccc4ccccc4c3C2(C)C)=[N+](CCCCS(=O)(=O)[O-])c2ccc3ccccc3c21 [ICG, indocyanine green]
temperature increase at the beginning of laser irradiation [1]: about 45 °C
AST/ALT values (blood liver levels) (nude mice): normal levels
immunostained liver/kidney tissues (nude mice): no abnormalities were found
fluorescence at the cancer site (accumulation) [2]: did not show fluorescence at the cancer site
